Results reported in US9695155B2, “Herbicidal substituted pyrimidinyloxy benzene compounds” (E. I. DU PONT DE NEMOURS AND COMPANY, priority 2013, dated 2017).

Tests used:
wheat [1] = assay: Test A postemergence; assay type: in vivo, Triticum aestivum; settings: 0 to 100 scale where 0 is no effect and 100 is complete control
How it was run: (§1)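 Injury scores run from 0, no effect, to 100, complete control, judged by eye against untreated plants roughly 10 days after treatment. Chemicals carried a surfactant in a non-phytotoxic solvent and went onto loam–sand soil preemergence or onto one- to two-leaf seedlings postemergence.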

large (Lg) crabgrass [2] = assay: Test A preemergence; assay type: in vivo, Digitaria sanguinalis
How it was run: as §1

sedge, umbrella [3] = assay: Test B flooded paddy test; assay type: in vivo, Cyperus difformis; settings: Flood, 250 g ai/ha; 0 to 100 scale where 0 is no effect and 100 is complete control
How it was run: (§2)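 Visual ratings on a 0 to 100 scale, where 100 means complete control, compared treated plants with controls after 13 to 15 days in a greenhouse. Treatment went into paddy water 3 cm deep over the soil, applied to plants at the 2-leaf stage.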

Heteranthera limosa = assay: Test B flooded paddy test; assay type: in vivo; settings: Flood, 250 g ai/ha; 0 to 100 scale where 0 is no effect and 100 is complete control
How it was run: as §2

large (Lg) crabgrass [4] = assay: Test A postemergence; assay type: in vivo, Digitaria sanguinalis; settings: 0 to 100 scale where 0 is no effect and 100 is complete control
How it was run: as §1

morningglory [5] = assay: Test A preemergence; assay type: in vivo, Ipomoea spp.
How it was run: as §1

velvetleaf [6] = assay: Test A postemergence; assay type: in vivo, Abutilon theophrasti; settings: 0 to 100 scale where 0 is no effect and 100 is complete control
How it was run: as §1

rice [7] = assay: Test B flooded paddy test; assay type: in vivo, Oryza sativa; settings: Flood, 250 g ai/ha; 0 to 100 scale where 0 is no effect and 100 is complete control
How it was run: as §2

wheat [8] = assay: Test A preemergence; assay type: in vivo, Triticum aestivum
How it was run: as §1

morningglory [9] = assay: Test A postemergence; assay type: in vivo, Ipomoea spp.; settings: 0 to 100 scale where 0 is no effect and 100 is complete control
How it was run: as §1

corn [10] = assay: Test A postemergence; assay type: in vivo, Zea mays; settings: 0 to 100 scale where 0 is no effect and 100 is complete control
How it was run: as §1

pigweed [11] = assay: Test A postemergence; assay type: in vivo, Amaranthus retroflexus; settings: 0 to 100 scale where 0 is no effect and 100 is complete control
How it was run: as §1

rice [12] = assay: Test C flooded paddy test; assay type: in vivo, Oryza sativa; settings: Flood, scale 0 to 100 (0 no effect, 100 complete control), 13 to 15 days
How it was run: (§3)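 Test compounds are applied straight into paddy water held 3 cm above the soil surface, with that flood maintained for the whole test. After 13 to 15 days in the greenhouse, each species is scored visually relative to controls.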

sedge, umbrella [13] = assay: Test C flooded paddy test; assay type: in vivo, Cyperus difformis; settings: Flood, scale 0 to 100 (0 no effect, 100 complete control), 13 to 15 days
How it was run: as §3

barnyardgrass [14] = assay: Test A postemergence; assay type: in vivo, Echinochloa crus-galli; settings: 0 to 100 scale where 0 is no effect and 100 is complete control
How it was run: as §1

barnyardgrass [15] = assay: Test B flooded paddy test; assay type: in vivo, Echinochloa crus-galli; settings: Flood, 250 g ai/ha; 0 to 100 scale where 0 is no effect and 100 is complete control
How it was run: as §2

giant foxtail [16] = assay: Test A postemergence; assay type: in vivo, Setaria faberii; settings: 0 to 100 scale where 0 is no effect and 100 is complete control
How it was run: as §1

barnyardgrass [17] = assay: Test A preemergence; assay type: in vivo, Echinochloa crus-galli
How it was run: as §1

giant foxtail [18] = assay: Test A preemergence; assay type: in vivo, Setaria faberii
How it was run: as §1

pigweed [19] = assay: Test A preemergence; assay type: in vivo, Amaranthus retroflexus
How it was run: as §1

ducksalad = assay: Test C flooded paddy test; assay type: in vivo, Heteranthera limosa; settings: Flood, scale 0 to 100 (0 no effect, 100 complete control), 13 to 15 days
How it was run: as §3

barnyardgrass [20] = assay: Test C flooded paddy test; assay type: in vivo, Echinochloa crus-galli; settings: Flood, scale 0 to 100 (0 no effect, 100 complete control), 13 to 15 days
How it was run: as §3

velvetleaf [21] = assay: Test A preemergence; assay type: in vivo, Abutilon theophrasti
How it was run: as §1

corn [22] = assay: Test A preemergence; assay type: in vivo, Zea mays
How it was run: as §1

[23] = 500 g ai/ha, 0 to 100 scale where 0 is no effect and 100 is complete control

FC(F)c1cccc(Oc2ncc(Br)cn2)c1-n1cc(Br)cn1 [Compound 231]
Wheat plant response rating (wheat [1]; 125 g ai/ha): 20
Plant response rating, Wheat (wheat [1]; 500 g ai/ha): 50
Crabgrass, Large plant response rating (0 to 100 scale) (large (Lg) crabgrass [2]; 125 g ai/ha): 90
Crabgrass, Large plant response rating (large (Lg) crabgrass [2]; [23]): 100
Plant response rating, Sedge, Umbrella (sedge, umbrella [3]): 80
Plant response rating, Ducksalad (Heteranthera limosa): 80
Crabgrass, Large plant response rating (large (Lg) crabgrass [4]; 125 g ai/ha): 70
Plant response rating, Crabgrass, Large (large (Lg) crabgrass [4]; 500 g ai/ha): 90
Morningglory plant response rating (0 to 100 scale) (morningglory [5]; 125 g ai/ha): 0
Morningglory plant response rating (morningglory [5]; [23]): 30
Velvetleaf plant response rating (velvetleaf [6]; 125 g ai/ha): 100
Plant response rating, Velvetleaf (velvetleaf [6]; 500 g ai/ha): 100
Plant response rating, Rice (rice [7]): 30
Wheat plant response rating (0 to 100 scale) (wheat [8]; 125 g ai/ha): 0
Wheat plant response rating (wheat [8]; [23]): 20
Morningglory plant response rating (morningglory [9]; 125 g ai/ha): 30
Plant response rating, Morningglory (morningglory [9]; 500 g ai/ha): 90
Corn plant response rating (corn [10]; 125 g ai/ha): 20
Plant response rating, Corn (corn [10]; 500 g ai/ha): 90
Pigweed plant response rating (pigweed [11]; 125 g ai/ha): 100
Plant response rating, Pigweed (pigweed [11]; 500 g ai/ha): 100
Plant response rating, Rice (rice [12]; 31 g ai/ha): 0
Plant response rating, Rice (rice [12]; 62 g ai/ha): 0
Plant response rating, Rice (rice [12]; 125 g ai/ha): 0
Plant response rating, Rice (rice [12]; 250 g ai/ha): 0
Plant response rating, Sedge, Umbrella (sedge, umbrella [13]; 31 g ai/ha): 0
Plant response rating, Sedge, Umbrella (sedge, umbrella [13]; 62 g ai/ha): 50
Plant response rating, Sedge, Umbrella (sedge, umbrella [13]; 125 g ai/ha): 70
Plant response rating, Sedge, Umbrella (sedge, umbrella [13]; 250 g ai/ha): 80
Barnyardgrass plant response rating (barnyardgrass [14]; 125 g ai/ha): 40
Plant response rating, Barnyardgrass (barnyardgrass [14]; 500 g ai/ha): 90
Plant response rating, Barnyardgrass (barnyardgrass [15]): 20
Foxtail, Giant plant response rating (giant foxtail [16]; 125 g ai/ha): 70
Plant response rating, Foxtail, Giant (giant foxtail [16]; 500 g ai/ha): 90
Barnyardgrass plant response rating (0 to 100 scale, 0 is no effect, 100 is complete control) (barnyardgrass [17]; 125 g ai/ha): 20
Barnyardgrass plant response rating (barnyardgrass [17]; [23]): 100
Foxtail, Giant plant response rating (0 to 100 scale) (giant foxtail [18]; 125 g ai/ha): 90
Foxtail, Giant plant response rating (giant foxtail [18]; [23]): 100
Pigweed plant response rating (0 to 100 scale) (pigweed [19]; 125 g ai/ha): 90
Pigweed plant response rating (pigweed [19]; [23]): 100
Plant response rating, Ducksalad (ducksalad; 31 g ai/ha): 0
Plant response rating, Ducksalad (ducksalad; 62 g ai/ha): 30
Plant response rating, Ducksalad (ducksalad; 125 g ai/ha): 70
Plant response rating, Ducksalad (ducksalad; 250 g ai/ha): 75
Plant response rating, Barnyardgrass (barnyardgrass [20]; 31 g ai/ha): 0
Plant response rating, Barnyardgrass (barnyardgrass [20]; 62 g ai/ha): 0
Plant response rating, Barnyardgrass (barnyardgrass [20]; 125 g ai/ha): 0
Plant response rating, Barnyardgrass (barnyardgrass [20]; 250 g ai/ha): 0
Velvetleaf plant response rating (0 to 100 scale) (velvetleaf [21]; 125 g ai/ha): 0
Velvetleaf plant response rating (velvetleaf [21]; [23]): 100
Corn plant response rating (0 to 100 scale) (corn [22]; 125 g ai/ha): 0
Corn plant response rating (corn [22]; [23]): 20
